This note sets out measurements from patent EP0687685A1, “PHYSIOLOGICALLY ACTIVE PEPTIDE” (TEIJIN LIMITED, priority 1993, dated 1994).

Positions of bridges follow the written chain, without caps; N, C: chain ends. Residues, ends and D or L forms follow the SMILES beside them. Chains are numbered I, II in the order given. *: point of attachment. Mob = COc1ccc(C*)cc1; Acm = CC(=O)NC*

The target in experiment [1] is T1, human type II PLA₂ (Homo sapiens, UniProt P14555).
T1 construct: made in house; host or cells: Sf9 insect cells, baculovirus (AcNPV), vector pAcTJI1; purified from culture supernatant
T1 sequence (P14555 21-144): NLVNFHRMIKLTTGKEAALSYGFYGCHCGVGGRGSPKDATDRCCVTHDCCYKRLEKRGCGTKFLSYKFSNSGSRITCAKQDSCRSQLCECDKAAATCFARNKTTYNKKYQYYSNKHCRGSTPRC
The experiment in a line: Enzyme inhibition of human type II PLA₂ in the presence of heparin, radiolabeled synthetic phospholipid (method of Dole). It counts as biochemical. The following applies: PLA₂ enzyme 200 ng/ml; for inhibition at 5 µg/mL / remaining activity at 5 µg/mL: peptide 5 µg/ml; for inhibition at 10 µg/mL / remaining activity at 10 µg/mL: peptide 10 µg/ml; for inhibition at 50 µg/mL / remaining activity at 50 µg/mL: peptide 50 µg/ml; for inhibition at 100 µg/mL / remaining activity at 100 µg/mL: peptide 100 µg/ml.

Experiment [2] concerns the target T1, human type II PLA₂. The experiment in a line: Enzyme inhibition of human type II PLA₂ in the presence of heparin, radioactive phospholipid of E. coli origin. Type of experiment: biochemical. The following applies: heparin 10 µg/ml, PLA₂ enzyme 10 ng/ml.
[3] abbreviates: heparin 50 µg/ml, read-out: PLA₂enzyme activity (%).
Setting [4] is: heparin 10 µg/ml, read-out: PLA₂enzyme activity (%).

What is called inhibition is the change of the read-out against control, counted positive when it falls. As to `CC(=O)NCSC[C@H](NC(=O)[C@H](CO)NC(=O)[C@H](Cc1ccccc1)NC(=O)[C@H](CCCCN)NC(=O)[C@H](Cc1ccc(O)cc1)NC(=O)[C@H](CO)NC(=O)[C@H](CC(C)C)NC(=O)[C@H](Cc1ccccc1)NC(=O)[C@H](CCCCN)NC(=O)[C@@H](NC(=O)CNC(=O)[C@H](CSSC[C@H](NC(=O)CNC(=O)[C@H](CCCNC(=N)N)NC(=O)[C@@H](N)CCCCN)C(=O)NCC(=O)N[C@H](C(=O)N[C@@H](CCCCN)C(=O)N[C@@H](Cc1ccccc1)C(=O)N[C@@H](CC(C)C)C(=O)N[C@@H](CO)C(=O)N[C@@H](Cc1ccc(O)cc1)C(=O)N[C@@H](CCCCN)C(=O)N[C@@H](Cc1ccccc1)C(=O)N[C@@H](CO)C(=O)N[C@@H](CSCNC(C)=O)C(=O)O)[C@@H](C)O)NC(=O)CNC(=O)[C@H](CCCNC(=N)N)NC(=O)[C@@H](N)CCCCN)[C@@H](C)O)C(=O)O` [Peptide (13)] (I: H-KRGCGTKFLSYKFSC(Acm)-OH / II: H-KRGCGTKFLSYKFSC(Acm)-OH; disulfide I:4-II:4), in experiment [1] (heparin 50 µg/ml), the inhibition at 5 µg/mL was 42%, the inhibition at 10 µg/mL is 62%, the inhibition at 50 µg/mL was found to be 81% and the inhibition at 100 µg/mL worked out at 86%. In experiment [1] (setting [3]), the remaining activity at 5 µg/mL amounted to 58%, the remaining activity at 10 µg/mL stood at 38%, the remaining activity at 50 µg/mL is 19% and the remaining activity at 100 µg/mL stood at 14%.

With `CC(=O)NCSC[C@H](NC(=O)CNC(=O)[C@H](CCCNC(=N)N)NC(=O)[C@@H](N)CCCCN)C(=O)NCC(=O)N[C@H](C(=O)N[C@@H](CCCCN)C(=O)N[C@@H](Cc1ccccc1)C(=O)N[C@@H](CC(C)C)C(=O)N[C@@H](CO)C(=O)N[C@@H](Cc1ccc(O)cc1)C(=O)N[C@@H](CCCCN)C(=O)N[C@@H](Cc1ccccc1)C(=O)N[C@@H](CO)C(=O)N[C@@H](CSSC[C@H](NC(=O)[C@H](CO)NC(=O)[C@H](Cc1ccccc1)NC(=O)[C@H](CCCCN)NC(=O)[C@H](Cc1ccc(O)cc1)NC(=O)[C@H](CO)NC(=O)[C@H](CC(C)C)NC(=O)[C@H](Cc1ccccc1)NC(=O)[C@H](CCCCN)NC(=O)[C@@H](NC(=O)CNC(=O)[C@H](CSCNC(C)=O)NC(=O)CNC(=O)[C@H](CCCNC(=N)N)NC(=O)[C@@H](N)CCCCN)[C@@H](C)O)C(=O)O)C(=O)O)[C@@H](C)O` [Peptide (11)] (I: H-KRGC(Acm)GTKFLSYKFSC-OH / II: H-KRGC(Acm)GTKFLSYKFSC-OH; disulfide I:15-II:15), in experiment [1] (heparin 50 µg/ml), the inhibition at 5 µg/mL came to 43%, the inhibition at 10 µg/mL amounted to 63%, the inhibition at 50 µg/mL stood at 78% and the inhibition at 100 µg/mL turned out to be 82%. In experiment [1] (setting [3]), the remaining activity at 5 µg/mL turned out to be 57%, the remaining activity at 10 µg/mL was found to be 37%, the remaining activity at 50 µg/mL amounted to 22% and the remaining activity at 100 µg/mL was 18%.

Regarding `CC(C)C[C@@H]1NC(=O)[C@H](Cc2ccccc2)NC(=O)[C@H](CCCCN)NC(=O)[C@H]([C@@H](C)O)NC(=O)CNC(=O)[C@@H](NC(=O)CNC(=O)[C@H](CCCNC(=N)N)NC(=O)[C@@H](N)CCCCN)CSSC[C@@H](C(=O)O)NC(=O)[C@H](CO)NC(=O)[C@H](Cc2ccccc2)NC(=O)[C@H](CCCCN)NC(=O)[C@H](Cc2ccc(O)cc2)NC(=O)[C@H](CO)NC(=O)[C@H](CC(C)C)NC(=O)[C@H](Cc2ccccc2)NC(=O)[C@H](CCCCN)NC(=O)[C@H]([C@@H](C)O)NC(=O)CNC(=O)[C@@H](NC(=O)CNC(=O)[C@H](CCCNC(=N)N)NC(=O)[C@@H](N)CCCCN)CSSC[C@@H](C(=O)O)NC(=O)[C@H](CO)NC(=O)[C@H](Cc2ccccc2)NC(=O)[C@H](CCCCN)NC(=O)[C@H](Cc2ccc(O)cc2)NC(=O)[C@H](CO)NC1=O` [Peptide (17)] (I: H-KRGCGTKFLSYKFSC-OH / II: H-KRGCGTKFLSYKFSC-OH; disulfide I:4-II:15, I:15-II:4), the inhibition at 1 µg/mL in experiment [1] (peptide 1 µg/ml, heparin 10 µg/ml) was 69%. In addition, the remaining activity at 1 µg/mL in experiment [1] (peptide 1 µg/ml, heparin 10 µg/ml, read-out: PLA₂enzyme activity (%)) came to 31%. Moreover, in experiment [1] (heparin 10 µg/ml), the inhibition at 5 µg/mL was found to be 91% and the inhibition at 10 µg/mL turned out to be 94%. In experiment [1] (setting [4]), the remaining activity at 5 µg/mL was determined as 9% and the remaining activity at 10 µg/mL was determined as 6%.

On to `COc1ccc(CSC[C@H](NC(=O)CNC(=O)[C@H](CCCNC(=N)N)NC(=O)[C@@H](N)CCCCN)C(=O)NCC(=O)N[C@H](C(=O)N[C@@H](CCCCN)C(=O)N[C@@H](Cc2ccccc2)C(=O)N[C@@H](CC(C)C)C(=O)N[C@@H](CO)C(=O)N[C@@H](Cc2ccc(O)cc2)C(=O)N[C@@H](CCCCN)C(=O)N[C@@H](Cc2ccccc2)C(=O)N[C@@H](CO)C(=O)N[C@@H](CSSC[C@H](NC(=O)[C@H](CO)NC(=O)[C@H](Cc2ccccc2)NC(=O)[C@H](CCCCN)NC(=O)[C@H](Cc2ccc(O)cc2)NC(=O)[C@H](CO)NC(=O)[C@H](CC(C)C)NC(=O)[C@H](Cc2ccccc2)NC(=O)[C@H](CCCCN)NC(=O)[C@@H](NC(=O)CNC(=O)[C@H](CSCc2ccc(OC)cc2)NC(=O)CNC(=O)[C@H](CCCNC(=N)N)NC(=O)[C@@H](N)CCCCN)[C@@H](C)O)C(=O)O)C(=O)O)[C@@H](C)O)cc1` [Peptide (2)] (I: H-KRGC(Mob)GTKFLSYKFSC-OH / II: H-KRGC(Mob)GTKFLSYKFSC-OH; disulfide I:15-II:15), for which, in experiment [1] (heparin 50 µg/ml), the inhibition at 5 µg/mL was 25%, the inhibition at 10 µg/mL was 52%, the inhibition at 50 µg/mL stood at 81% and the inhibition at 100 µg/mL was 89%. Further, in experiment [1] (setting [3]), the remaining activity at 5 µg/mL was found to be 75%, the remaining activity at 10 µg/mL is 48%, the remaining activity at 50 µg/mL is 19% and the remaining activity at 100 µg/mL turned out to be 11%.

As to `CC(C)C[C@@H]1NC(=O)[C@H](Cc2ccccc2)NC(=O)[C@H](CCCCN)NC(=O)[C@H]([C@@H](C)O)NC(=O)CNC(=O)[C@@H](NC(=O)CNC(=O)[C@H](CCCNC(=N)N)NC(=O)[C@@H](N)CCCCN)CSSC[C@H](NC(=O)CNC(=O)[C@H](CCCNC(=N)N)NC(=O)[C@@H](N)CCCCN)C(=O)NCC(=O)N[C@@H]([C@@H](C)O)C(=O)N[C@@H](CCCCN)C(=O)N[C@@H](Cc2ccccc2)C(=O)N[C@@H](CC(C)C)C(=O)N[C@@H](CO)C(=O)N[C@@H](Cc2ccc(O)cc2)C(=O)N[C@@H](CCCCN)C(=O)N[C@@H](Cc2ccccc2)C(=O)N[C@@H](CO)C(=O)N[C@H](C(=O)O)CSSC[C@@H](C(=O)O)NC(=O)[C@H](CO)NC(=O)[C@H](Cc2ccccc2)NC(=O)[C@H](CCCCN)NC(=O)[C@H](Cc2ccc(O)cc2)NC(=O)[C@H](CO)NC1=O` [Peptide (16)] (I: H-KRGCGTKFLSYKFSC-OH / II: H-KRGCGTKFLSYKFSC-OH; disulfide I:4-II:4, I:15-II:15), in experiment [1] (heparin 50 µg/ml), the inhibition at 5 µg/mL came to 59%, the inhibition at 10 µg/mL was 72%, the inhibition at 50 µg/mL was 82% and the inhibition at 100 µg/mL is 90%. In experiment [1] (setting [3]), the remaining activity at 5 µg/mL worked out at 41%, the remaining activity at 10 µg/mL was 28%, the remaining activity at 50 µg/mL is 18% and the remaining activity at 100 µg/mL is 10%. In experiment [2] (peptide 1 µg/ml), the inhibition at 1 µg/mL amounted to 88% and the remaining activity at 1 µg/mL was determined as 12%. Besides, in experiment [2] (peptide 5 µg/ml), the inhibition at 5 µg/mL was 97% and the remaining activity at 5 µg/mL worked out at 3%. In experiment [2] (peptide 10 µg/ml), the inhibition at 10 µg/mL came to 98% and the remaining activity at 10 µg/mL stood at 2%.
